13 compounds from ChEMBL document CHEMBL1149563 (Bioorg Med Chem Lett, 2007) can be followed below.

The target in series [1] is T1, Androgen receptor (Mus musculus, UniProt P19091).
T1 sequence (P19091 whole entry): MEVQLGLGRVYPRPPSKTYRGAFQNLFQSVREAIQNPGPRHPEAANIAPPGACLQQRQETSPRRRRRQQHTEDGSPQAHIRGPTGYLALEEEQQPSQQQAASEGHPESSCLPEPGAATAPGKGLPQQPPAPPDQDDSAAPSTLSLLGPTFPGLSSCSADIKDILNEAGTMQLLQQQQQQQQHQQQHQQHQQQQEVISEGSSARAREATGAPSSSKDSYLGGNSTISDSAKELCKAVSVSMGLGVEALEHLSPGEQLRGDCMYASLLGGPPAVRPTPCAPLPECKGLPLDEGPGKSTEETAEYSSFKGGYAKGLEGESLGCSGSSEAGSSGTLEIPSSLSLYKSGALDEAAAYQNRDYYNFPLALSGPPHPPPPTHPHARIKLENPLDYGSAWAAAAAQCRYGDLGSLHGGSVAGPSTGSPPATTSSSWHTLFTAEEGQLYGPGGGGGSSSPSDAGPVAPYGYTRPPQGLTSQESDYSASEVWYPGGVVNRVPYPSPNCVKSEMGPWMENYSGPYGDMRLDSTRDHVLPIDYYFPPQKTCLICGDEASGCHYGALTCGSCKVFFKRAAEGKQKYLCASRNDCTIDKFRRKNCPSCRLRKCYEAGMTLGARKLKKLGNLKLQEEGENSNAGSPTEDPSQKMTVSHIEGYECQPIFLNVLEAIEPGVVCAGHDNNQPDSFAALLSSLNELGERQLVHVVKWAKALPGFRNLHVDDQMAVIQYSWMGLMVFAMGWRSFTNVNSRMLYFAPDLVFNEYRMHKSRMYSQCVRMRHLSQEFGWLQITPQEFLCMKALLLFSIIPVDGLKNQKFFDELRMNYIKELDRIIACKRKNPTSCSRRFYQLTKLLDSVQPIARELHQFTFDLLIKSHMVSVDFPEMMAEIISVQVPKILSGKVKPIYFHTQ
Briefly: Agonist activity at androgen receptor in mouse C2C12 cells by receptor transactivation assay. It counts as functional, cell-based.

Series [2] is described as follows: Oral bioavailability in rat at 10 mg/kg. It counts as ADME, organism-based. To be noted: in vivo.
Series [3] can be described thus: Clearance in rat at 5 mg/kg, iv or 10 mg/kg, po. It counts as ADME, organism-based. Particulars: in vivo.
The target of series [4] is T2, Androgen receptor (Homo sapiens, UniProt P10275).
T2 sequence (P10275 whole entry): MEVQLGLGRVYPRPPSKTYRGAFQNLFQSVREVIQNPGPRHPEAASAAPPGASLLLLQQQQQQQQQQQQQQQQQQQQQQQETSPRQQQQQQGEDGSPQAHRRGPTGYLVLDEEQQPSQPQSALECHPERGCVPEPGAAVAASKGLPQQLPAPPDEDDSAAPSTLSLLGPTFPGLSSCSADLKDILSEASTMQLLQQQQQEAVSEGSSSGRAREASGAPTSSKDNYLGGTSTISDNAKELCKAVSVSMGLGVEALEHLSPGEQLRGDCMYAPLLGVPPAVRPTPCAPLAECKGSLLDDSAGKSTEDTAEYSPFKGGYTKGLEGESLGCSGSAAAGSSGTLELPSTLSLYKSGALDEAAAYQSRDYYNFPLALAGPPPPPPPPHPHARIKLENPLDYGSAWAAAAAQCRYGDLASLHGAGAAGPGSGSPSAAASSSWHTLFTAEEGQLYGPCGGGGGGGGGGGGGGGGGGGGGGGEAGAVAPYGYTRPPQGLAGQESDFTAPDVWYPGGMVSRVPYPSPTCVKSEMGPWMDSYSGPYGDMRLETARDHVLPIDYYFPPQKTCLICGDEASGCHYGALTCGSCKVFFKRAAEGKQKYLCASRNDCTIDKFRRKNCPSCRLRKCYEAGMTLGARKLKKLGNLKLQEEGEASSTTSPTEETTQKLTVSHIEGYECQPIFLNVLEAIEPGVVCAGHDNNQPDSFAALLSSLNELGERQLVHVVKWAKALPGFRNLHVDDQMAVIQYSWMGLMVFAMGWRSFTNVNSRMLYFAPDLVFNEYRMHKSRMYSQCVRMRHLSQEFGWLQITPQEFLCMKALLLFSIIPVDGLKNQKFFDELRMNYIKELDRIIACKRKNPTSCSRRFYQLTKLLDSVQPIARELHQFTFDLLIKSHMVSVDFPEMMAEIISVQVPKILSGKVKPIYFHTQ
Briefly: Displacement of [3H]DHT from human androgen receptor in MDA453 cells. It counts as cell-based. A general note: Loss of bound radioactivity is the signal in a displacement assay; it reports binding, not function.

Series [5] is described as follows: Half life in rat at 5 mg/kg, iv or 10 mg/kg, po. It counts as ADME, organism-based. To be noted: in vivo.
Series [6] in a line: Cmax in rat at 5 mg/kg, iv or 10 mg/kg, po. It counts as ADME, organism-based. Particulars: in vivo.
For series [7], the system named is Rattus norvegicus. Briefly: Effect on levator ani muscle weight in castrated rat at 10 mg/kg, po after 14 days relative to intact rat. It is filed as functional.
Series [8] relates to Rattus norvegicus. Put plainly: Effect on […] in castrated rat at 10 mg/kg, po after 14 days relative to intact rat. It counts as functional.
Series [9] deals with T1, Androgen receptor.
Description: Antagonist activity at androgen receptor in mouse C2C12 cells by receptor transactivation assay
The subject of series [10] is Rattus norvegicus. Put plainly: Effect on levator ani muscle weight in castrated rat at 0.3 mg/kg, sc after 14 days relative to intact rat. It is filed as functional. To be noted: route subcutaneous.
For series [11], the system named is Rattus norvegicus. Briefly: Effect on […] in castrated rat at 0.3 mg/kg, sc after 14 days relative to intact rat. It is filed as functional. To be noted: route subcutaneous.

A word on the EC50: it is the concentration at which the effect is half-maximal. On Androgen receptor [1], `Cc1c(N2C(=O)[C@@H]3[C@H](O)CCN3C2=O)ccc(C#N)c1Cl` showed an EC50 of 0.44 nM. In other words, the sub-nanomolar range.
In general, bioavailability refers to the share of a dose that reaches the circulation, judged against a reference dose that is usually intravenous. A low value points to poor availability. A word on the Ki: it is the equilibrium dissociation constant of an inhibitor or competing ligand from its target. Higher therefore signals weaker binding. A word on the half-life: it is the time needed for the level to fall by half in the phase considered. The low end stands for fast loss, the high end for slow loss. In general, Cmax refers to the highest concentration seen after dosing. In series [2], `Cc1c(N2C(=O)[C@@H]3[C@H](O)CCN3S2(=O)=O)ccc(C#N)c1Cl` returned a bioavailability of 53%. For the same compound, in series [3], the clearance was 12.8 mL/min/kg. The compound further gave a Ki on Androgen receptor [4] of 0.45 nM. Besides, in series [5], the half-life was 54 min. Moreover, in series [6], the concentration peaked (Cmax) at 8.4 µM. Also, the Activity in the series on Rattus norvegicus [7] turned out to be 70%; in the series on Rattus norvegicus [8] it was 10%. Moreover, the EC50 at Androgen receptor [1] is 11.9 nM.
`Cc1c(N2C(=O)[C@@H]3[C@@H](O)CCN3S2(=O)=O)ccc(C#N)c1Cl` gave a Ki at Androgen receptor [4] of 29 nM. Besides, on Androgen receptor [1], the response was half-maximal at 2960 nM (EC50).
`Cc1c(N2C[C@@H]3[C@@H](O)CCN3S2(=O)=O)ccc(C#N)c1Cl` registered a Ki at Androgen receptor [4] of 189 nM. This lies in the sub-micromolar range.
`Cc1c(N2C[C@@H]3[C@H](O)CCN3S2(=O)=O)ccc(C#N)c1Cl` displayed a Ki on Androgen receptor [4] of 14 nM. This compound also gave an EC50 at Androgen receptor [1] of 7730 nM.
`COC(=O)[C@@H]1[C@H](O)CCN1S(=O)(=O)Nc1ccc(C#N)c(Cl)c1C` registered an EC50 on Androgen receptor [1] of 7460 nM.
In general, IC50 refers to the midpoint of a concentration-inhibition curve. Low values mean higher potency, high ones lower potency. As to `COC(=O)[C@@H]1[C@H](O)CCN1S(=O)(=O)c1ccc(C#N)c(Cl)c1C`, the Ki on Androgen receptor [4] amounted to 36 nM. At Androgen receptor [1], this compound showed an EC50 above 3000 nM. Besides, the IC50 at Androgen receptor [9] worked out at 278 nM.
Compound `Cc1c(N2C(=O)[C@]3(C)[C@H](O)CCN3S2(=O)=O)ccc(C#N)c1Cl` showed a Ki at Androgen receptor [4] of 8.2 nM. This compound registered an EC50 on Androgen receptor [1] of 1250 nM.
As to `Cc1c(N2C(=O)[C@@H]3C[C@H](O)CN3S2(=O)=O)ccc(C#N)c1Cl`, the Ki at Androgen receptor [4] stood at 44 nM. The compound also registered an EC50 on Androgen receptor [1] of 3520 nM.
The compound `Cc1c(N2C(C)[C@@H]3[C@@H](O)CCN3S2(=O)=O)ccc(C#N)c1Cl` (stereo not given in full) yielded a Ki on Androgen receptor [4] of 20 nM. Moreover, a half-maximal response on Androgen receptor [1] (EC50) required 8960 nM.
The compound `Cc1c(NS(=O)(=O)N2CC[C@@H](O)[C@H]2C(=O)O)ccc(C#N)c1Cl` had an EC50 on Androgen receptor [1] of 2.8 nM. This counts as single-digit nanomolar.
On the same count and under the same terms, the figure for `N#Cc1ccc(N2C(=O)[C@@H]3[C@H](O)CCN3C2=O)c2ccccc12` is 2.3 nM.
`CCC(=O)O[C@H]1CC[C@H]2[C@@H]3CCC4=CC(=O)CC[C@]4(C)[C@H]3CC[C@]12C` [TESTOSTERONE PROPIONATE] yielded a Ki at Androgen receptor [4] of 0.25 nM. Besides, the Activity in the series on Rattus norvegicus [10] and in the series with Rattus norvegicus [11] was 70% in each case. In addition, the midpoint of the response on Androgen receptor [1], the EC50, lay at 2.8 nM.
